Results published in patent US20070244110A1, “Treatment of prostate cancer, melanoma or hepatic cancer” (ZENYAKU KOGYO KABUSHIKI KAISHA, priority 2006, published 2007).

Assays:
[1] = tested on: PC-3 prostate cancer cells; experiment: In vitro anti-tumor experiment, growth inhibition of PC-3 cells; format: cell-based; conditions: Homo sapiens; PC-3, 72 hours incubation
Protocol: (§1) Hepatoma HepG2 cells were cultured in a MEM culture medium (containing 10% fetal bovine serum, 25 mM HEPES and 0.1 mg/ml kanamycin) under conditions of 5% carbon dioxide at 37° C. HepG2 cells were harvested as single free cells by a tripsin/EDTA treatment in the logarithmic growth phase, and a cell suspension solution consisted of 2×10^4 cells per ml was prepared with MEM culture medium (containing 10% fetal bovine serum, 25 mM HEPES and 0.1 mg/ml kanamycin). The test compound was dissolved in DMSO, then diluted with RPMI1640 culture medium (containing 10% fetal bovine serum, 25 mM HEPES, 0.1 mg/ml kanamycin), and adjusted to a concentration of 2.0×10^−9 to 2.0×10^−3 M.
(§2) 0.1 ml of the cell suspension solution was put in each well of a 96-well plate, then cultured for 24 hours to make the cells adhere to the microplates, and 0.1 ml of the test compound was added in each well and incubated for 72 hours under conditions of 5% carbon dioxide at 37° C. The 50% growth inhibition concentration (GI50 value μM) was computed from the growth inhibition rates at various test sample concentrations, and the results are shown in Table 1.
(§3) When using cells other than HepG2 cells, the following culture media were used instead of the MEM culture medium, and the following single cell suspensions were prepared with the following media:
PC-3 prostate cancer cells:
F12K culture medium containing 10% fetal bovine serum, 2×10^4 cell suspension

B16F10 melanoma cells = experiment: In vitro anti-tumor experiment, growth inhibition of B16F10 cells; format: cell-based; conditions: Mus musculus, B16-F10; B16F10, 72 hours incubation
Protocol: as §1, §2, §3
RPMI1640 culture medium containing 10% fetal bovine serum, 1×10^4 cell suspension

Hepatoma HepG2 cells = experiment: In vitro anti-tumor experiment, growth inhibition of HepG2 cells; format: cell-based; conditions: Homo sapiens; HepG2, 72 hours incubation
Protocol: as §1, §2

GI50 [1]: 0.49 µM | GI50 (B16F10 melanoma cells): 1.14 µM | GI50 (Hepatoma HepG2 cells): 1.12 µM | melting point: 166 to 169 °C
SMILES: C[C@@H]1CO[C@@H](C)CN1c1nc(N2CCOCC2)nc(-n2c(C(F)F)nc3ccccc32)n1 (relative stereo) [Compound 3, 2-(2-difluoromethylbenzimidazol-1-yl)-4-(trans-2,5-dimethylmorpholino)-6-morpholino-1,3,5-triazine]
